Experimental data from ChEMBL document CHEMBL1201862, “PubChem BioAssay data set” (2004).
The source made the active and inactive calls. Cut-off read from the data, not from the text of the source: actives have a measured IC50 and inactives only a lower limit.

Molecular target: Envelope glycoprotein gp160 (Human immunodeficiency virus 1, UniProt Q6QLK5)
Test: inhibitors of HIV fusion peptide binding, primary screen, biochemical, uHTS, fluorescence dequenching (AID 1986)

Sequence of Envelope glycoprotein gp160 (Q6QLK5 whole entry, the tested form may be a part): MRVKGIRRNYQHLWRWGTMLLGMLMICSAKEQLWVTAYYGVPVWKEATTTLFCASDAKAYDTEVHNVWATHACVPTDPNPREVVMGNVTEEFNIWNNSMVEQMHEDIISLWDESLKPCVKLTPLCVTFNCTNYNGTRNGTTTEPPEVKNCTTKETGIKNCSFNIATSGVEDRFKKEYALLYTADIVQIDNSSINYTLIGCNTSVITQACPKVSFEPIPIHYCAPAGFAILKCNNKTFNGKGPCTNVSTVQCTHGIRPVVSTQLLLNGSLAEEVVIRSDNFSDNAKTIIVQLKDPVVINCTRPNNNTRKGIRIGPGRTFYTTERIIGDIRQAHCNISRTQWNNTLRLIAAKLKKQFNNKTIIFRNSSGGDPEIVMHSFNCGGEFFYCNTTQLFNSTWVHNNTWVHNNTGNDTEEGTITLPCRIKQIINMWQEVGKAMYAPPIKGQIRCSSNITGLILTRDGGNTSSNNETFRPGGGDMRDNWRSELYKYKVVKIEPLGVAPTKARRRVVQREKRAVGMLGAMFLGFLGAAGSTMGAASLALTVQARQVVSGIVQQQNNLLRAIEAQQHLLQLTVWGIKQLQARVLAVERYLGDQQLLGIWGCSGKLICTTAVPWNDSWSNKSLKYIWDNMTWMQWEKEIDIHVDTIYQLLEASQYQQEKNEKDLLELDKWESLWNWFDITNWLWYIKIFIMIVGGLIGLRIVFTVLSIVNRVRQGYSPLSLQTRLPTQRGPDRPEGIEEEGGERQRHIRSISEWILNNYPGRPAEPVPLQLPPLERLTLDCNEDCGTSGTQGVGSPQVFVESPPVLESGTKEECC

SMILES | IC50
COc1cc(/C=N/Nc2ccc(Cl)c(C(=O)O)c2)ccc1OC(=O)c1ccc(F)cc1 | 26.8 µM (active)
O=C(O)c1[nH]c2ccccc2c1C(c1cc(Br)ccc1O)c1c(C(=O)O)[nH]c2ccccc12 | 4.11 µM (active)
